Test results taken from patent US10004701B2, “Methods and compositions for treating infection” (UNIVERSITY OF ROCHESTER, priority 2012, dated 2018).
Counter-ions that a name gives are not always drawn. Like-named read-outs stand apart in the source and are kept apart here.

Legend:
Assay in all cases: AK assay 384-well format, Prestwick library screening
[1] = system: A. baumannii strain 98-37-09; assay type: cell-based, Acinetobacter baumannii; settings: 50 μM final drug concentration; for fold induction at 50 µM: Acinetobacter baumannii, 983709, 3 h
E. faecium = assay type: cell-based, Enterococcus faecium; settings: 50 μM final drug concentration; for fold induction at 50 µM: Enterococcus faecium, 3 h
E. coli = assay type: cell-based, Escherichia coli; settings: 50 μM final drug concentration; for fold induction at 50 µM: Escherichia coli, 3 h
[2] = system: S. aureus strain USA300-0114; assay type: cell-based, Staphylococcus aureus; settings: 50 μM final drug concentration; for fold induction at 50 µM: Staphylococcus aureus, USA300, 3 h
K. pneumoniae = assay type: cell-based, Klebsiella pneumoniae; settings: 50 μM final drug concentration; for fold induction at 50 µM: Klebsiella pneumoniae, 3 h
P. aeruginosa = assay type: cell-based, Pseudomonas aeruginosa; settings: 50 μM final drug concentration; for fold induction at 50 µM: Pseudomonas aeruginosa, 3 h
E. cloacae = assay type: cell-based, Enterobacter cloacae; settings: 50 μM final drug concentration; for fold induction at 50 µM: Enterobacter cloacae, 3 h
[3] = planktonic, cutoff for positive-scoring molecules 3-fold increase
[4] = planktonic A. baumannii, positive cutoff 3-fold increase
[5] = planktonic E. faecium, positive cutoff 3-fold increase
[6] = planktonic S. aureus, positive cutoff 3-fold increase
[7] = planktonic K. pneumoniae, positive cutoff 3-fold increase
[8] = planktonic P. aeruginosa, positive cutoff 3-fold increase
[9] = planktonic E. cloacae, positive cutoff 3-fold increase
[10] = planktonic, cutoff for positive 3-fold increase

CN(C)C/C=C(/c1ccc(Br)cc1)c1cccnc1 [Zimelidine dihydrochloride monohydrate]
fold induction at 50 µM ([1]; 384-well format, cutoff for positive-scoring molecules 3-fold increase, read-out: AK-based Prestwick Library Screening Results, A. baumannii (increase in extracellular AK activity)): 0.7
fold induction at 50 µM (E. faecium; 384-well format, cutoff for positive-scoring molecules 3-fold increase, read-out: AK-based Prestwick Library Screening Results, E. faecium (increase in extracellular AK activity)): 0.9
fold induction at 50 µM (E. coli; 384-well format, cutoff for positive-scoring molecules 3-fold increase, read-out: AK-based Prestwick Library Screening Results, E. coli (increase in extracellular AK activity)): 0.7
fold induction at 50 µM ([2]; 384-well format, cutoff for positive-scoring molecules 3-fold increase, read-out: AK-based Prestwick Library Screening Results, S. aureus (increase in extracellular AK activity)): 0.8
fold induction at 50 µM (K. pneumoniae; 384-well format, cutoff for positive-scoring molecules 3-fold increase, read-out: AK-based Prestwick Library Screening Results, K. pneumoniae (increase in extracellular AK activity)): 0.5
fold induction at 50 µM (P. aeruginosa; 384-well format, cutoff for positive-scoring molecules 3-fold increase, read-out: AK-based Prestwick Library Screening Results, P. aeruginosa (increase in extracellular AK activity)): 0.6
fold induction at 50 µM (E. cloacae; 384-well format, cutoff for positive-scoring molecules 3-fold increase, read-out: AK-based Prestwick Library Screening Results, E. cloacae (increase in extracellular AK activity)): 0.8

Cc1cc(CC(=O)O)n(C)c1C(=O)c1ccc(Cl)cc1 [Zomepirac sodium salt]
fold induction at 50 µM ([1]; cutoff for positive-scoring molecules 3-fold increase, read-out: AK-based Prestwick Library Screening Results, A. baumannii (fold increase in extracellular AK activity)): 1.1
fold induction at 50 µM (E. faecium; cutoff for positive-scoring molecules 3-fold increase, read-out: AK-based Prestwick Library Screening Results, E. faecium (fold increase in extracellular AK activity)): 1.1
fold induction at 50 µM (E. coli; cutoff for positive-scoring molecules 3-fold increase, read-out: AK-based Prestwick Library Screening Results, E. coli (fold increase in extracellular AK activity)): 1.1
fold induction at 50 µM ([2]; cutoff for positive-scoring molecules 3-fold increase, read-out: AK-based Prestwick Library Screening Results, S. aureus (fold increase in extracellular AK activity)): 0.9
fold induction at 50 µM (K. pneumoniae; cutoff for positive-scoring molecules 3-fold increase, read-out: AK-based Prestwick Library Screening Results, K. pneumoniae (fold increase in extracellular AK activity)): 1
fold induction at 50 µM (P. aeruginosa; cutoff for positive-scoring molecules 3-fold increase, read-out: AK-based Prestwick Library Screening Results, P. aeruginosa (fold increase in extracellular AK activity)): 0.9
fold induction at 50 µM (E. cloacae; cutoff for positive-scoring molecules 3-fold increase, read-out: AK-based Prestwick Library Screening Results, E. cloacae (fold increase in extracellular AK activity)): 1.6

OCCN1CCN(CC/C=C2/c3ccccc3Sc3ccc(Cl)cc32)CC1 [Zuclopenthixol hydrochloride]
fold induction at 50 µM ([1]; planktonic A. baumannii, positive cutoff 3-fold increase, read-out: AK-based Prestwick library screening result, A. baumannii (fold increase in extracellular AK activity)): 1.9
fold induction at 50 µM (E. faecium; planktonic E. faecium, positive cutoff 3-fold increase, read-out: AK-based Prestwick library screening result, E. faecium (fold increase in extracellular AK activity)): 1
fold induction at 50 µM (E. coli; planktonic E. coli, positive cutoff 3-fold increase, read-out: AK-based Prestwick library screening result, E. coli (fold increase in extracellular AK activity)): 1.2
fold induction at 50 µM ([2]; planktonic S. aureus, positive cutoff 3-fold increase, read-out: AK-based Prestwick library screening result, S. aureus (fold increase in extracellular AK activity)): 0.7
fold induction at 50 µM (K. pneumoniae; planktonic K. pneumoniae, positive cutoff 3-fold increase, read-out: AK-based Prestwick library screening result, K. pneumoniae (fold increase in extracellular AK activity)): 1
fold induction at 50 µM (P. aeruginosa; planktonic P. aeruginosa, positive cutoff 3-fold increase, read-out: AK-based Prestwick library screening result, P. aeruginosa (fold increase in extracellular AK activity)): 0.9
fold induction at 50 µM (E. cloacae; planktonic E. cloacae, positive cutoff 3-fold increase, read-out: AK-based Prestwick library screening result, E. cloacae (fold increase in extracellular AK activity)): 1.3

CC1=C2[C@H]3OC(=O)[C@@H](C)[C@@H]3CC[C@@]2(C)C=CC1=O [alpha-Santonin]
fold induction at 50 µM ([1]; planktonic A. baumannii, […], read-out: AK-based Prestwick library screening result, A. baumannii (fold increase in extracellular AK activity)): 0.8
fold induction at 50 µM (E. faecium; planktonic E. faecium, […], read-out: AK-based Prestwick library screening result, E. faecium (fold increase in extracellular AK activity)): 1
fold induction at 50 µM (E. coli; planktonic E. coli, […], read-out: AK-based Prestwick library screening result, E. coli (fold increase in extracellular AK activity)): 0.8
fold induction at 50 µM ([2]; planktonic S. aureus, […], read-out: AK-based Prestwick library screening result, S. aureus (fold increase in extracellular AK activity)): 0.9
fold induction at 50 µM (K. pneumoniae; planktonic K. pneumoniae, […], read-out: AK-based Prestwick library screening result, K. pneumoniae (fold increase in extracellular AK activity)): 0.7
fold induction at 50 µM (P. aeruginosa; planktonic P. aeruginosa, […], read-out: AK-based Prestwick library screening result, P. aeruginosa (fold increase in extracellular AK activity)): 0.9
fold induction at 50 µM (E. cloacae; planktonic E. cloacae, […], read-out: AK-based Prestwick library screening result, E. cloacae (fold increase in extracellular AK activity)): 0.9

CC[N+]1(C)[C@@H]2CC[C@H]1CC(OC(=O)[C@@H]1CC[C@@](C(=O)OC3C[C@H]4CC[C@@H](C3)[N+]4(C)CC)(c3ccccc3)c3ccccc31)C2.[Cl-].[Cl-] (stereo partly drawn) [beta-Belladonnine dichloroethylate]
AK-based Prestwick Library Screening Results, A. baumannii (fold increase in extracellular AK activity) ([1]; planktonic, […]): 1.0
AK-based Prestwick Library Screening Results, E. faecium (fold increase in extracellular AK activity) (E. faecium; planktonic, […]): 1.0
AK-based Prestwick Library Screening Results, E. coli (fold increase in extracellular AK activity) (E. coli; planktonic, […]): 1.2
AK-based Prestwick Library Screening Results, S. aureus (fold increase in extracellular AK activity) ([2]; planktonic, […]): 1.3
AK-based Prestwick Library Screening Results, K. pneumoniae (fold increase in extracellular AK activity) (K. pneumoniae; planktonic, […]): 0.9
AK-based Prestwick Library Screening Results, P. aeruginosa (fold increase in extracellular AK activity) (P. aeruginosa; planktonic, […]): 1.2
AK-based Prestwick Library Screening Results, E. cloacae (fold increase in extracellular AK activity) (E. cloacae; planktonic, […]): 1.3

CC(C)(CO)[C@@H](O)C(=O)NCCC(=O)O [calcium salt monohydrate]
fold induction at 50 µM ([1]; planktonic, cutoff for positive 3-fold increase, read-out: AK-based Prestwick Library Screening Results, A. baumannii (fold increase in extracellular AK activity)): 1.1
fold induction at 50 µM (E. faecium; planktonic, cutoff for positive 3-fold increase, read-out: AK-based Prestwick Library Screening Results, E. faecium (fold increase in extracellular AK activity)): 1.1
fold induction at 50 µM (E. coli; planktonic, cutoff for positive 3-fold increase, read-out: AK-based Prestwick Library Screening Results, E. coli (fold increase in extracellular AK activity)): 1.1
fold induction at 50 µM ([2]; planktonic, cutoff for positive 3-fold increase, read-out: AK-based Prestwick Library Screening Results, S. aureus (fold increase in extracellular AK activity)): 1.1
fold induction at 50 µM (K. pneumoniae; planktonic, cutoff for positive 3-fold increase, read-out: AK-based Prestwick Library Screening Results, K. pneumoniae (fold increase in extracellular AK activity)): 1
fold induction at 50 µM (P. aeruginosa; planktonic, cutoff for positive 3-fold increase, read-out: AK-based Prestwick Library Screening Results, P. aeruginosa (fold increase in extracellular AK activity)): 1
fold induction at 50 µM (E. cloacae; planktonic, cutoff for positive 3-fold increase, read-out: AK-based Prestwick Library Screening Results, E. cloacae (fold increase in extracellular AK activity)): 1.4

CC(=O)N(CC(C)C(=O)O)c1c(I)cc(I)c(N)c1I (stereo not shown) [locetamic acid]
AK-based Prestwick Library Screening Results, A. baumannii (fold increase in extracellular AK activity) [1, 3]: 0.8
AK-based Prestwick Library Screening Results, E. faecium (fold increase in extracellular AK activity) (E. faecium; [3]): 0.9
AK-based Prestwick Library Screening Results, E. coli (fold increase in extracellular AK activity) (E. coli; planktonic, […]): 0.9
AK-based Prestwick Library Screening Results, S. aureus (fold increase in extracellular AK activity) [2, 3]: 0.8
AK-based Prestwick Library Screening Results, K. pneumoniae (fold increase in extracellular AK activity) (K. pneumoniae; [3]): 0.8
AK-based Prestwick Library Screening Results, P. aeruginosa (fold increase in extracellular AK activity) (P. aeruginosa; [3]): 0.9
AK-based Prestwick Library Screening Results, E. cloacae (fold increase in extracellular AK activity) (E. cloacae; [3]): 1.4

CNC(=O)c1c(I)c(C(=O)NCC(=O)Nc2c(I)c(C(=O)O)c(I)c(C(=O)NCCO)c2I)c(I)c(N(C)C(C)=O)c1I [loxaglic acid]
AK-based Prestwick library screening result, A. baumannii (fold increase in extracellular AK activity) [1, 4]: 0.8
AK-based Prestwick library screening result, E. faecium (fold increase in extracellular AK activity) (E. faecium; [5]): 0.9
AK-based Prestwick library screening result, E. coli (fold increase in extracellular AK activity) (E. coli; planktonic E. coli, […]): 0.9
AK-based Prestwick library screening result, S. aureus (fold increase in extracellular AK activity) [2, 6]: 0.6
AK-based Prestwick library screening result, K. pneumoniae (fold increase in extracellular AK activity) (K. pneumoniae; [7]): 0.8
AK-based Prestwick library screening result, P. aeruginosa (fold increase in extracellular AK activity) (P. aeruginosa; [8]): 0.8
AK-based Prestwick library screening result, E. cloacae (fold increase in extracellular AK activity) (E. cloacae; [9]): 1.1

(S)-(−)-Atenolol
AK-based Prestwick Library Screening Results, A. baumannii (fold increase in extracellular AK activity) [1, 10]: 1.1
AK-based Prestwick Library Screening Results, E. faecium (fold increase in extracellular AK activity) (E. faecium; [10]): 1.0
AK-based Prestwick Library Screening Results, E. coli (fold increase in extracellular AK activity) (E. coli; [10]): 1.2
AK-based Prestwick Library Screening Results, S. aureus (fold increase in extracellular AK activity) [2, 10]: 1.2
AK-based Prestwick Library Screening Results, K. pneumoniae (fold increase in extracellular AK activity) (K. pneumoniae; [10]): 0.9
AK-based Prestwick Library Screening Results, P. aeruginosa (fold increase in extracellular AK activity) (P. aeruginosa; [10]): 1.1
AK-based Prestwick Library Screening Results, E. cloacae (fold increase in extracellular AK activity) (E. cloacae; [10]): 1.7

(S)-propranolol hydrochloride
AK-based Prestwick library screening result, A. baumannii (fold increase in extracellular AK activity) [1, 4]: 1.0
AK-based Prestwick library screening result, E. faecium (fold increase in extracellular AK activity) (E. faecium; [5]): 1.1
AK-based Prestwick library screening result, E. coli (fold increase in extracellular AK activity) (E. coli; planktonic E. coli, positive cutoff 3-fold increase): 1.2
AK-based Prestwick library screening result, S. aureus (fold increase in extracellular AK activity) [2, 6]: 1.0
AK-based Prestwick library screening result, K. pneumoniae (fold increase in extracellular AK activity) (K. pneumoniae; [7]): 1.0
AK-based Prestwick library screening result, P. aeruginosa (fold increase in extracellular AK activity) (P. aeruginosa; [8]): 1.1
AK-based Prestwick library screening result, E. cloacae (fold increase in extracellular AK activity) (E. cloacae; [9]): 1.6
